The subject of assay [1] is high-[iron(III)] TAM clusters in MycCaP tumors. The experiment in a line: FeMRI measurement of high-[iron(III)] TAM clusters in MycCaP tumors. Format: in vivo, FVB/N mice. Here is the method: TAM clusters was measured by FeMRI at each week of treatment as a function of percent infiltration in MycCaP tumors. […] These low-[iron(III)] and high-[iron(III)] populations were mapped by thresholding the tumor Fe[(III)] distribution in these ranges on the FeMRI. The low-[iron(III)] map consisted of dense pixel clusters distributed throughout the tumor, while the high-[iron(III)] map contained sparse clusters with average cluster size of approximately 4 MRI pixel^2≈0.05 mm^2 primarily at the outer tumor margins (n=10 mice). To quantify the extent of infiltration of these TAM clusters, an image-processing algorithm was developed in-house with Matlab and ImageJ. This tool is based on concentric rake sampling that identifies […] CD68^+ or high-[iron(III)] colonies and maps them as a function of % infiltration into the tumor (inset FIG. 2J, […] outer edge, 100% tumor center) for arbitrarily sized histological (FIG. 2J, left […]) regions of interest. […] Immune-competent, syngeneic murine FVB/N and C57BL/6 hosts underwent orthotopic prostatic injections of 5×10^4 cells (MycCaP and TRAMP-C2, respectively), and thereafter received either sham (H2O) or DFP (150 mg/kg, 5 days/week) by oral gavage until average primary tumor burden exceeded 1 cm^3 (determined by MM) in the treated group. […]

Assay [2] concerns orthotopic MycCaP prostate tumors. The experiment in a line: Tumor volume by MRI in orthotopic MycCaP prostate model during iron chelation therapy. Type of assay: in vivo, FVB/N mice. The following applies: 150 mg/kg, 5 days/week oral gavage; two weeks of gavage beginning one-week post-implantation at 100 mm^3; vs sham (H2O); n=10, p<0.05. The source says:
(§1) Chelation of iron(III) has been proposed as a cancer treatment that causes reductions in tumor growth, presumably by reducing bioavailability of iron(III) to the cancer cells. However, no studies have addressed the possibility that chelation modulates TAM infiltration contributing to these anti-tumor effects. In order to investigate anti-tumor effects of iron chelation, FeMRI is used, as described herein, to monitor tumor growth in two mouse models. The faster growing MycCaP model and the slower growing TRAMP-C2 model were studied and contrasted to evaluate the effect of dose duration. Immune-competent, syngeneic murine FVB/N and C57BL/6 hosts underwent orthotopic prostatic injections of 5×10^4 cells (MycCaP and TRAMP-C2, respectively), and thereafter received either sham (H2O) or DFP (150 mg/kg, 5 days/week) by oral gavage until average primary tumor burden exceeded 1 cm^3 (determined by MM) in the treated group. […] At long dose durations (12 weeks) there was no growth of TRAMP-C2 orthotopic tumors implanted in syngeneic hosts (FIG. 3A, n=10, *p<0.001). […] (FIG. 3D, n=10, *p<0.05). […] Further, the ability to monitor TAM dynamics serially using FeMRI represents a technique that has translational use, bypassing the necessity for using invasive biopsy to obtain similar measures of stromal response to therapy.

Assay [3] concerns high-iron(III)+ CD68+ TAMs in MycCaP tumors. The experiment in a line: Whole slice histology (Prussian Blue iron(III), CD68) of TAM infiltration in MycCaP tumors. Format: in vivo, FVB/N mice. From the text:
In order to further quantify these low- and high-[iron(III)] sub-populations, quantitative histology was used. […] In low-iron(III)^+ regions, prostate cancer cells were found sparsely studded with ferritin particles less than 1 μm^2 (at an approximate density of 1000 ferritin particles/field; no CD68^+ macrophages were observed (FIG. 2F, 2G n=18 fields, n=6 mice). In high-iron(III)^+ regions CD68^+ TAMs were found bearing dense hemosiderin deposits in groups of approximately 24 macrophages/TAM cluster (FIG. 2F, 2G, n=18 fields, n=6 mice). With these histological findings, it was possible to estimate the per-pixel TAM number in high-[iron(III)] MRI clusters at approximately 6 macrophages/pixel. To quantify the extent of infiltration of these TAM clusters, an image-processing algorithm was developed in-house with Matlab and ImageJ. […] Immune-competent, syngeneic murine FVB/N and C57BL/6 hosts underwent orthotopic prostatic injections of 5×10^4 cells (MycCaP and TRAMP-C2, respectively), and thereafter received either sham (H2O) or DFP (150 mg/kg, 5 days/week) by oral gavage until average primary tumor burden exceeded 1 cm^3 (determined by MM) in the treated group. […]

Assay [4] has as its system orthotopic TRAMP-C2 prostate tumors. The experiment in a line: Tumor volume by MRI in orthotopic TRAMP-C2 prostate model during iron chelation therapy. Format: in vivo, C57BL/6 mice. Particulars: 150 mg/kg, 5 days/week oral gavage; long dose duration (12 weeks); syngeneic hosts; n=10, p<0.001.
Description: as §1

On to `Cc1c(O)c(=O)ccn1C` [DFP, deferiprone], for which the “rates of TAM infiltration” value in assay [1] (derived from changes of FeMRI infiltration profiles over time, n=10, p<0.05) is listed as “reduced”. In assay [1] (over the full course of treatment), the “FeMRI measurements of TAMs” value is listed as “showed reductions”. Further, in assay [2], the “smaller tumor volumes by the endpoint of the study” value amounted to 40%. For the same compound, in assay [3] (MycCaP tumor at week 3 of treatment, vs untreated group, p<0.05), the “histological TAM infiltration profile” value is reported as “less TAMs than the untreated group”. Further, the “high-iron(III)+ and CD68+ positive cells (histological analysis)” value in assay [3] (MycCaP tumors, 150 mg/kg oral gavage, data not shown) was “reduced”. For the same compound, in assay [4], the tumor growth result was “no growth”.
